Test results published in patent US12528791B2 (priority 2019, dated 2026).

Legend:
TR beta-LBD = biological target: T1, TR beta-LBD (Homo sapiens, UniProt P10828); assay type: biochemical; settings: TR-FRET assay; THR beta over THR alpha, derived from T3-selectivity normalized data
T1 sequence (P10828 217-461 limits assumed): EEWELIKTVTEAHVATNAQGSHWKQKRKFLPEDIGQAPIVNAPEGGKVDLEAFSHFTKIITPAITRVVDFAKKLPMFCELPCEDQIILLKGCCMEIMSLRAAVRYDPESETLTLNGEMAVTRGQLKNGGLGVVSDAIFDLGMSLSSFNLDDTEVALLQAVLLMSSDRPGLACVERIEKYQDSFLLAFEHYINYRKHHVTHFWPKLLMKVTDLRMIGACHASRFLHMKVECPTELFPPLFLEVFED

THR-β/RXR-α = biological target: T2, THR-β/RXR-α (Homo sapiens, UniProt P10828); assay type: biochemical; settings: RXR heterodimer assay; compound activity normalized to T3 for THR-β/RXR-α and THR-α/RXR-α
T2 sequence (P10828 202-461 limits assumed): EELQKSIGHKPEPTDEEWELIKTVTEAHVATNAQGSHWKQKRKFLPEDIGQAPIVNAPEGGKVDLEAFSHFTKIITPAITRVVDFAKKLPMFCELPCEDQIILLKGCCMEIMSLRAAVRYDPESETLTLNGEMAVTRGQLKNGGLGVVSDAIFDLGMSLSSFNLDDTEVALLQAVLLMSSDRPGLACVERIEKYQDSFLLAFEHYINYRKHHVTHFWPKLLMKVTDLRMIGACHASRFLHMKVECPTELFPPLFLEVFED
T2 sequence (P19793 225-462 partner limits assumed): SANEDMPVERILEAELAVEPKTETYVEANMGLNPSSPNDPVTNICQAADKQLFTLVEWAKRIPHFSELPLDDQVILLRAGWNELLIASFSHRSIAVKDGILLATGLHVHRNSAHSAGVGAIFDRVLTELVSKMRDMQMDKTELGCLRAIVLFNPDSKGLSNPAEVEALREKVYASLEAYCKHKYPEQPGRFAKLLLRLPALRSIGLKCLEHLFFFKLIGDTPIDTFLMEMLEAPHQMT
T2 sequence (Q15596 679-703 partner limits assumed): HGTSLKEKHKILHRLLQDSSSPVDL

SMILES | THRβ-Selectivity (TR beta-LBD) | THRβ-Selectivity (THR-β/RXR-α)
CCc1n[nH]c2ccc(Oc3c(Cl)cc(-c4n[nH]c(=O)[nH]c4=O)cc3Cl)cc12 [Example 2, 6-(3,5-dichloro-4-((3-ethyl-1H-indazol-5-yl)oxy)phenyl)-1,2,4-triazine-3,5(2H,4H)-dione] | 28.0 | 3.6
Cc1n[nH]c2ccc(Oc3c(Cl)cc(-n4nc(C#N)c(=O)[nH]c4=O)cc3Cl)cc12 [Example 3, 2-(3,5-dichloro-4-((3-methyl-1H-indazol-5-yl)oxy)phenyl)-3,5-dioxo-2,3,4,5-tetrahydro-1,2,4-triazine-6-carbonitrile] | 32.0 | 8.5
Cc1n[nH]c2ccc(Oc3c(Cl)cc(NC(=O)c4noc(=O)[nH]4)cc3Cl)cc12 [Example 4, N-(3,5-dichloro-4-((3-methyl-1H-indazol-5-yl)oxy)phenyl)-5-oxo-4,5-dihydro-1,2,4-oxadiazole-3-carboxamide] | 18.8 | 6.6
Cc1n[nH]c2ccc(Oc3c(Cl)cc(-c4n[nH]c(=O)[nH]c4=O)cc3Cl)cc12 [Example 5, 6-(3,5-dichloro-4-((3-methyl-1H-indazol-5-yl)oxy)phenyl)-1,2,4-triazine-3,5(2H,4H)-dione] | 15.6 | 3.1
Cc1n[nH]c2ncc(Oc3c(Cl)cc(NC(=O)c4noc(=O)[nH]4)cc3Cl)cc12 [Example 6, N-(3,5-dichloro-4-((3-methyl-1H-pyrazolo[3,4-b]pyridin-5-yl)oxy)phenyl)-5-oxo-4,5-dihydro-1,2,4-oxadiazole-3-carboxamide] | >18.5 | 5.6
Cc1n[nH]c2ncc(Oc3c(Cl)cc(-n4nc(C#N)c(=O)[nH]c4=O)cc3Cl)cc12 [Example 7, 2-(3,5-dichloro-4-((3-methyl-1H-pyrazolo[3,4-b]pyridin-5-yl)oxy)phenyl)-3,5-dioxo-2,3,4,5-tetrahydro-1,2,4-triazine-6-carbonitrile] | 9.5 | 9.7
COc1n[nH]c2ccc(Oc3c(Cl)cc(-n4nc(C#N)c(=O)[nH]c4=O)cc3Cl)cc12 [Example 9, 2-(3,5-dichloro-4-((3-methoxy-1H-indazol-5-yl)oxy)phenyl)-3,5-dioxo-2,3,4,5-tetrahydro-1,2,4-triazine-6-carbonitrile] | 8.0 | 10.3
Cn1cnc2cnc(Oc3c(Cl)cc(NC(=O)c4noc(=O)[nH]4)cc3Cl)cc21 [Example 11, N-(3,5-dichloro-4-((1-methyl-1H-imidazo[4,5-c]pyridin-6-yl)oxy)phenyl)-5-oxo-4,5-dihydro-1,2,4-oxadiazole-3-carboxamide] | >30.5 | 10.4
N#Cc1nn(-c2cc(Cl)c(Oc3ccc4ncccc4c3)c(Cl)c2)c(=O)[nH]c1=O [Example 13, 2-(3,5-dichloro-4-(quinolin-6-yloxy)phenyl)-3,5-dioxo-2,3,4,5-tetrahydro-1,2,4-triazine-6-carbonitrile] | 3.7 | 5.5
Cc1ccnc2ccc(Oc3c(Cl)cc(-n4nc(C#N)c(=O)[nH]c4=O)cc3Cl)cc12 [Example 15, 2-(3,5-dichloro-4-((4-methylquinolin-6-yl)oxy)phenyl)-3,5-dioxo-2,3,4,5-tetrahydro-1,2,4-triazine-6-carbonitrile] | 15.9 | 15.4
N#Cc1nn(-c2cc(Cl)c(Oc3ccc4nc(C5CC5)ccc4c3)c(Cl)c2)c(=O)[nH]c1=O [Example 26, 2-(3,5-dichloro-4-((2-cyclopropylquinolin-6-yl)oxy)phenyl)-3,5-dioxo-2,3,4,5-tetrahydro-1,2,4-triazine-6-carbonitrile] |  | 3.3
CC(C)n1c(=O)[nH]c2ccc(Oc3c(Cl)cc(NC(=O)c4noc(=O)[nH]4)cc3Cl)cc21 [Example 30, N-(3,5-dichloro-4-((3-isopropyl-2-oxo-2,3-dihydro-1H-benzo[d]imidazol-5-yl)oxy)phenyl)-5-oxo-4,5-dihydro-1,2,4-oxadiazole-3-carboxamide] |  | 9.9
CCc1ccnc2ccc(Oc3c(Cl)cc(-n4nc(C#N)c(=O)[nH]c4=O)cc3Cl)cc12 [Example 35, 2-(3,5-dichloro-4-((4-ethylquinolin-6-yl)oxy)phenyl)-3,5-dioxo-2,3,4,5-tetrahydro-1,2,4-triazine-6-carbonitrile] |  | 10.2
CCc1ccnc2ccc(Oc3c(Cl)cc(NC(=O)c4noc(=O)[nH]4)cc3Cl)cc12 [Example 36, N-(3,5-dichloro-4-((4-ethylquinolin-6-yl)oxy)phenyl)-5-oxo-4,5-dihydro-1,2,4-oxadiazole-3-carboxamide] |  | 7.1
CC(C)(C)n1cnc2ccc(Oc3c(Cl)cc(NC(=O)c4noc(=O)[nH]4)cc3Cl)cc21 [Example 37, N-(4-((1-(tert-butyl)-1H-benzo[d]imidazol-6-yl)oxy)-3,5-dichlorophenyl)-5-oxo-4,5-dihydro-1,2,4-oxadiazole-3-carboxamide] |  | 8.3
CC(C)(C)n1cnc2ccc(Oc3c(Cl)cc(-n4nc(C#N)c(=O)[nH]c4=O)cc3Cl)cc21 [Example 38, 2-(4-((1-(tert-butyl)-1H-benzo[d]imidazol-6-yl)oxy)-3,5-dichlorophenyl)-3,5-dioxo-2,3,4,5-tetrahydro-1,2,4-triazine-6-carbonitrile] |  | 8.4
O=C(Nc1cc(Cl)c(Oc2ccc3nc4n(c3c2)CCCO4)c(Cl)c1)c1noc(=O)[nH]1 [Example 39, N-(3,5-dichloro-4-((3,4-dihydro-2H-benzo[4,5]imidazo[2,1-b][1,3]oxazin-7-yl)oxy)phenyl)-5-oxo-4,5-dihydro-1,2,4-oxadiazole-3-carboxamide] |  | 5.1
N#Cc1nn(-c2cc(Cl)c(Oc3ccc4nc5n(c4c3)CCCO5)c(Cl)c2)c(=O)[nH]c1=O [Example 40, 2-(3,5-dichloro-4-((3,4-dihydro-2H-benzo[4,5]imidazo[2,1-b][1,3]oxazin-7-yl)oxy)phenyl)-3,5-dioxo-2,3,4,5-tetrahydro-1,2,4-triazine-6-carbonitrile] |  | 11.6
CC1(n2cnc3ccc(Oc4c(Cl)cc(NC(=O)c5noc(=O)[nH]5)cc4Cl)cc32)CC1 [Example 43, N-(3,5-dichloro-4-((1-(1-methylcyclopropyl)-1H-benzo[d]imidazol-6-yl)oxy)phenyl)-5-oxo-4,5-dihydro-1,2,4-oxadiazole-3-carboxamide] |  | 11.8
CC1(n2cnc3ccc(Oc4c(Cl)cc(-n5nc(C#N)c(=O)[nH]c5=O)cc4Cl)cc32)CC1 [Example 44, 2-(3,5-dichloro-4-((1-(1-methylcyclopropyl)-1H-benzo[d]imidazol-6-yl)oxy)phenyl)-3,5-dioxo-2,3,4,5-tetrahydro-1,2,4-triazine-6-carbonitrile] |  | 10.1
O=C(Nc1cc(Cl)c(Oc2ccc3nccc(C4CC4)c3c2)c(Cl)c1)c1noc(=O)[nH]1 [Example 51, N-(3,5-dichloro-4-((4-cyclopropylquinolin-6-yl)oxy)phenyl)-5-oxo-4,5-dihydro-1,2,4-oxadiazole-3-carboxamide] |  | 8.1
N#Cc1nn(-c2cc(Cl)c(Oc3ccc4nccc(C5CC5)c4c3)c(Cl)c2)c(=O)[nH]c1=O [Example 52, 2-(3,5-dichloro-4-((4-cyclopropylquinolin-6-yl)oxy)phenyl)-3,5-dioxo-2,3,4,5-tetrahydro-1,2,4-triazine-6-carbonitrile] |  | 11.9
O=C(Nc1cc(Cl)c(Oc2ccc3ncn(C4(C(F)(F)F)CC4)c3c2)c(Cl)c1)c1noc(=O)[nH]1 [Example 53, N-(3,5-dichloro-4-((1-(1-(trifluoromethyl)cyclopropyl)-1H-benzo[d]imidazol-6-yl)oxy)phenyl)-5-oxo-4,5-dihydro-1,2,4-oxadiazole-3-carboxamide] |  | 14.7
O=C(Nc1cc(Cl)c(Oc2ccc3ncn(C4(C(F)F)CC4)c3c2)c(Cl)c1)c1noc(=O)[nH]1 [Example 55, N-(3,5-dichloro-4-((1-(1-(difluoromethyl)cyclopropyl)-1H-benzo[d]imidazol-6-yl)oxy)phenyl)-5-oxo-4,5-dihydro-1,2,4-oxadiazole-3-carboxamide] |  | 14.3
N#Cc1nn(-c2cc(Cl)c(Oc3ccc4ncn(C5(C(F)F)CC5)c4c3)c(Cl)c2)c(=O)[nH]c1=O [Example 56, 2-(3,5-dichloro-4-((1-(1-(difluoromethyl)cyclopropyl)-1H-benzo[d]imidazol-6-yl)oxy)phenyl)-3,5-dioxo-2,3,4,5-tetrahydro-1,2,4-triazine-6-carbonitrile] |  | 9.0
CCc1c[nH]c2ccc(Oc3c(Cl)cc(-n4nc(C#N)c(=O)[nH]c4=O)cc3Cl)cc12 [Example 59, 2-(3,5-dichloro-4-((3-ethyl-1H-indol-5-yl)oxy)phenyl)-3,5-dioxo-2,3,4,5-tetrahydro-1,2,4-triazine-6-carbonitrile] |  | 8.4
